Laboratory results published in paper PMC3626541, “A first in human, safety, pharmacokinetics, and clinical activity phase I study of once weekly administration of the Hsp90 inhibitor ganetespib (STA-9090) in patients with solid malignancies” (BMC Cancer, 2013).
Entries after “also recorded” stand apart in the source; their conditions may differ.

Columns and labels:
advanced solid tumors = experiment: Tumor response (RECIST v1.0); assay type: in vivo, human; details: for Disease control rate (≥ 8 weeks): complete and partial responses, and stable disease ≥ 8 weeks; for Disease control rate (≥ 16 weeks): complete and partial responses, and stable disease ≥ 16 weeks; for Best response: Complete response / Best response: Non-evaluable / Best response: Partial response / Best response: Progressive disease / Best response: Stable disease: investigator-evaluated
Procedure: Patients’ demographics and medical history were recorded at baseline. Physical examination and PS were assessed at baseline and on Day 1 of each cycle. Adverse events (AEs), vital signs, hematology and chemistry values, and creatinine clearance were assessed at baseline and weekly during treatment. Toxicity was graded using National Cancer Institute Common Terminology Criteria for Adverse Events (NCI CTCAE), version 3.0. An electrocardiogram (ECG) was performed at baseline, before and after treatment on Days 1 and 15 of Cycles 1 and 2, and on Day 15 of even-numbered cycles thereafter. CT scans were done at baseline and every 8 weeks thereafter. Tumor response was assessed using Response Evaluation Criteria in Solid Tumors (RECIST, v1.0), with confirmation of responses performed at least 4 weeks later.

[1] = Plasma pharmacokinetics (HPLC-MS/MS, non-compartmental); assay type: in vivo, human
Procedure: Blood samples were taken for ganetespib plasma concentration determination on Days 1 and 15 of Cycle 1 pre-dose, 0.5, 1, 1.5, 2, 4, 6, 8 and 24 h after infusion initiation. Samples were also drawn pre-dose and at 1 h, on Day 8 of Cycle 1 and Days 1, 8 and 15 of subsequent cycles. Plasma was separated and stored at a −70°C until analysis. Analyses were performed by a validated HPLC-MS/MS method under GLP conditions at Synta Pharmaceuticals Corp. Calibration curve coefficients of determination (r^2) ranged from 0.9897 to 0.9992. Back-calibrated calibration standards were in good agreement with QC samples with bias ≤ ± 3%, and calibration-curve r^2 variation was ≤ ± 6.5% across a concentration range of 0.100 through 100 ng/ml.
Pharmacokinetic parameters were computed non-compartmentally using standard methods within a validated installation of WinNonlin (v4.1, Pharsight Corporation, St. Louis, MO). Parameters included the maximum concentration (Cmax), area under the plasma concentration versus time curve (AUC), time of maximum concentration (Tmax), and terminal elimination half-life (t1/2).

HSP70 protein in plasma = HSP70 protein in plasma by ELISA; assay type: in vivo, human; details: for Peak circulating plasma HSP70 level: NSCLC patient, 150 mg/m^2
Procedure: Pre-dose blood samples on Days 1, 8 and 15 of Cycle 1 and 2 were collected for assessment of HSP70 protein in plasma by ELISA. Assays were performed using high sensitivity HSP70 ELISA kits (Assay Design, Ann Arbor, Michigan), with a sensitivity limit as low as 90 pg/ml, according to manufacturers’ instructions. Results were detected using a microplate ELISA reader at 450 nm with a correction wavelength of 540 nm. Concentrations of HSP70 were normalized to the total protein in each plasma sample.

[2] = test system: patients with advanced solid tumors; parameters: method as in unpublished observation; details: over 400 patients treated in other studies; ref unpublished observation; cited from earlier work
[3] = one NSCLC patient, 150 mg/m^2, BRAF G469A mutation
[4] = 1-hour IV infusion, across doses

Compound: CC(C)c1cc(-c2n[nH]c(=O)n2-c2ccc3c(ccn3C)c2)c(O)cc1O [Ganetespib, 5-[2,4-dihydroxy-5-(1 methyl-ethyl)phenyl]-2,4 dihydro-4-(1-methyl-1H indol-5 yl)-3H-1,2,4 triazole-3-one]
- Disease control rate (≥ 8 weeks) (advanced solid tumors; 259 mg/m^2, n = 6): 2 (33.3) n (%)
- Disease control rate (≥ 16 weeks) (advanced solid tumors; 259 mg/m^2, n = 6): 2 (33.3) n (%)
- Best response: Complete response (advanced solid tumors; 259 mg/m^2, n = 6): 0 n (%)
- Best response: Non-evaluable (advanced solid tumors; 259 mg/m^2, n = 6): 1 (16.7) n (%)
- Best response: Partial response (advanced solid tumors; 259 mg/m^2, n = 6): 0 n (%)
- Best response: Progressive disease (advanced solid tumors; 259 mg/m^2, n = 6): 3 (50) n (%)
- Best response: Stable disease (advanced solid tumors; 259 mg/m^2, n = 6): 2 (33.3) n (%)
- Disease control rate (≥ 8 weeks) (advanced solid tumors; 7-114 mg/m^2, n = 25): 11 (44) n (%)
- Disease control rate (≥ 16 weeks) (advanced solid tumors; 7-114 mg/m^2, n = 25): 5 (20) n (%)
- Best response: Complete response (advanced solid tumors; 7-114 mg/m^2, n = 25): 0 n (%)
- Best response: Non-evaluable (advanced solid tumors; 7-114 mg/m^2, n = 25): 4 (16) n (%)
- Best response: Partial response (advanced solid tumors; 7-114 mg/m^2, n = 25): 1 (4) n (%)
- Best response: Progressive disease (advanced solid tumors; 7-114 mg/m^2, n = 25): 10 (40) n (%)
- Best response: Stable disease (advanced solid tumors; 7-114 mg/m^2, n = 25): 10 (40) n (%)
- Patients with SD for at least 8 weeks (advanced solid tumors; 10 patients with NSCLC): 60%
- Duration of SD (range) (advanced solid tumors; 23 patients with SD): 46 to 563 days
- Disease control rate (≥ 8 weeks) (advanced solid tumors; 150-216 mg/m^2, n = 22): 11 (50) n (%)
- Disease control rate (≥ 16 weeks) (advanced solid tumors; 150-216 mg/m^2, n = 22): 6 (27.3) n (%)
- Best response: Complete response (advanced solid tumors; 150-216 mg/m^2, n = 22): 0 n (%)
- Best response: Non-evaluable (advanced solid tumors; 150-216 mg/m^2, n = 22): 6 (27.3) n (%)
- Best response: Partial response (advanced solid tumors; 150-216 mg/m^2, n = 22): 0 n (%)
- Best response: Progressive disease (advanced solid tumors; 150-216 mg/m^2, n = 22): 5 (22.7) n (%)
- Best response: Stable disease (advanced solid tumors; 150-216 mg/m^2, n = 22): 11 (50) n (%)
- Disease control rate (≥ 8 weeks) (advanced solid tumors; Overall response, n = 53): 24 (45.3) n (%)
- Disease control rate (≥ 16 weeks) (advanced solid tumors; Overall response, n = 53): 13 (24.5) n (%)
- Best response: Complete response (advanced solid tumors; Overall response, n = 53): 0 n (%)
- Best response: Non-evaluable (advanced solid tumors; Overall response, n = 53): 11 (20.8) n (%)
- Best response: Partial response (advanced solid tumors; Overall response, n = 53): 1 (1.9) n (%)
- Best response: Progressive disease (advanced solid tumors; Overall response, n = 53): 18 (34) n (%)
- Best response: Stable disease (advanced solid tumors; Overall response, n = 53): 23 (43.4) n (%)
- Disease control rate (PR and SD ≥ 16 weeks) (advanced solid tumors; all patients): 24.5%
- Patients with SD (advanced solid tumors; all patients): 43.4%
- Doses generally associated with disease stabilization (advanced solid tumors; heavily pre-treated patients with metastatic cancers): higher than 80 mg/m^2
- Patients with PR (advanced solid tumors; metastatic colorectal cancer): One patient
- Maximum reduction in target lesions (advanced solid tumors; [3]): 26.5%
- Time on study (advanced solid tumors; [3]): 13 months
- Maximum reduction in target lesions (advanced solid tumors; one patient with metastatic GIST, 216 mg/m^2, PDGFRA^D842V exon 18 mutation): 18%
- Duration of disease stabilization (advanced solid tumors; one patient with neuroendocrine tumor, 259 mg/m^2): over 20 months
- Tmax occurrence at the time of the 0.5 h sample ([1]; 1-hour IV infusion): 39 % of drug administrations
- Mean steady state volume of distribution (Vss) [1, 4]: 107 ± 98 L/m^2
- Plasma drug clearance [1, 4]: 28.55 ± 9.33 L/h/m^2
- Tmax ([1]; human, plasma, 1-hour IV infusion): 0.79 h
- Vd ([1]; human, plasma, 1-hour IV infusion, across doses, read-out: Mean steady state volume of distribution (Vss)): 196 ± 172 L
- clearance ([1]; human, plasma, 1-hour IV infusion, across doses, read-out: Plasma drug clearance (converted)): 877 mL/min
- half-life ([1]; human, plasma, 1-hour IV infusion, across doses, read-out: Terminal t1/2 (mean ± SD) (converted)): ~7.54 h
- Drug accumulation ([1]; once-weekly doses, Day 1 vs Day 15): no apparent drug accumulation
- Coefficient of variation for clearance ([1]; overall variability in exposure): 33.8%
- Plasma concentration as % of Cmax ([1]; within 8 to 10 h): ~1 % of Cmax
- Plasma concentration as % of Cmax ([1]; within 1 h of infusion termination): approximately 10 % of Cmax
- Peak circulating plasma HSP70 level (HSP70 protein in plasma; Cycle 1): 750 ng/g
- Peak circulating plasma HSP70 level (HSP70 protein in plasma; Cycle 2): 730 ng/g
- Hsp70 plasma protein levels versus baseline (HSP70 protein in plasma; Days 8 and 15, pre-dose, majority of patients): significantly elevated
- Dose levels at which Hsp70 induction saturates (HSP70 protein in plasma; mean maximum increase of HSP70 in Cycle 1): above 180 mg/m^2
- Persistence of elevated HSP70 protein plasma levels following drug exposure (HSP70 protein in plasma; post treatment): over a week; also recorded: at least a week
- Incidence of treatment related visual changes [2]: < 3%
